Test results published in patent US20010056085A1, “Methods of using vesicant drug formulations” (priority 1996, published 2001).
Where two headings read alike, the source gives them in different places.

Assay: Half-life of ADR destruction by UVA light in the presence of test compounds (decrease in absorbance at 480 nm)
Assay type: physicochemical
[1] = UVA light, 100 μM test compound alone
[2] = UVA light, 100 μM test compound with 0.5 μM riboflavin
[3] = UVA light, test compound alone, +4% DMSO
[4] = UVA light, with 0.5 μM riboflavin, +4% DMSO

OCCc1ccc2ccccc2c1 [2-Naphthaleneethanol]
Half-Life of ADR Destruction, 100 μM Test Compound [1]: 50.2 min | Half-Life of ADR Destruction, 100 μM Test Compound and 0.5 μM Riboflavin [2]: 33.5 min

OCc1ccc2ccccc2c1 [2-Naphthalenemethanol]
Half-Life of ADR Destruction, 100 μM Test Compound and 0.5 μM Riboflavin [2]: 50.2 min

O=S(=O)(O)c1ccc2ccccc2c1 [2-Naphthalenesulfonic acid]
Half-Life of ADR Destruction, 100 μM Test Compound [1]: 42.0 min

CC(=O)Oc1ccc2ccccc2c1 [2-Naphthyl acetate]
Half-Life of ADR Destruction, 100 μM Test Compound [3]: 43.0 min | Half-Life of ADR Destruction, 100 μM Test Compound and 0.5 μM Riboflavin [4]: 33.5 min

O=C(O)c1ccccc1-c1ccccc1 [2-Phenyl Benzoic Acid]
Half-Life of ADR Destruction, 100 μM Test Compound [1]: 43.0 min | Half-Life of ADR Destruction, 100 μM Test Compound and 0.5 μM Riboflavin [2]: 43.0 min

c1ccc(-c2cc3ccccc3[nH]2)cc1 [2-Phenyl Indole]
Half-Life of ADR Destruction, 100 μM Test Compound and 0.5 μM Riboflavin [2]: 14.3 min

O=C1CC(c2ccccc2)Oc2ccccc21 (stereo not shown) [2-Phenylchromanone (Flavanone), 2-Phenylchromanone]
Half-Life of ADR Destruction, 100 μM Test Compound and 0.5 μM Riboflavin [2]: 50.2 min

CC=Cc1ccccc1O [2-Propenyl Phenol]
Half-Life of ADR Destruction, 100 μM Test Compound: 50.2 min

CCCc1ccccc1N [2-Propyl Aniline]
Half-Life of ADR Destruction, 100 μM Test Compound and 0.5 μM Riboflavin [2]: 9.41 min

CCC(C)c1ccccc1N (stereo not shown) [2-sec-Butyl Aniline]
Half-Life of ADR Destruction, 100 μM Test Compound and 0.5 μM Riboflavin [2]: 10.4 min

COc1ccc(C(C)=O)c(O)c1 [2′-Hydroxy-4-methoxyaceotphenone]
Half-Life of ADR Destruction, 100 μM Test Compound: 75.3 min

CC(=O)c1ccccc1O [2′-Hydroxyacetophenone]
Half-Life of ADR Destruction, 100 μM Test Compound [1]: 50.2 min | Half-Life of ADR Destruction, 100 μM Test Compound and 0.5 μM Riboflavin [2]: 43.0 min

COc1ccccc1C(C)=O [2′-Methoxyacetophenone]
Half-Life of ADR Destruction, 100 μM Test Compound [1]: 25.1 min | Half-Life of ADR Destruction, 100 μM Test Compound and 0.5 μM Riboflavin [2]: 21.5 min

O=C(c1ccc(C(=O)O)c(C(=O)O)c1)c1ccc(C(=O)O)c(C(=O)O)c1 [3,3′,4,4′-Benzophenone-tetracarboxylic acid]
Half-Life of ADR Destruction, 100 μM Test Compound [1]: 43.0 min

Nc1cccc(S(=O)(=O)c2cccc(N)c2)c1 [3,3′-Diamino Phenylsulfone]
Half-Life of ADR Destruction, 100 μM Test Compound and 0.5 μM Riboflavin: 3.81 min

O=C1CCc2ccccc2N1 [3,4-Dihydro-2(1H)-quinolinone]
Half-Life of ADR Destruction, 100 μM Test Compound and 0.5 μM Riboflavin: 20.1 min

NCc1ccc(O)c(O)c1 [3,4-Dihydroxy Benzylamine]
Half-Life of ADR Destruction, 100 μM Test Compound and 0.5 μM Riboflavin [2]: 150.3 min

O=C(O)C=Cc1ccc(O)c(O)c1 [3,4-Dihydroxy Cinnamic Acid]
Half-Life of ADR Destruction, 100 μM Test Compound [1]: 75.3 min

NCCc1ccc(O)c(O)c1 [3,4-Dihydroxy Phenethylamine (Dopamine), 3,4-Dihydroxy Phenethylamine]
Half-Life of ADR Destruction, 100 μM Test Compound and 0.5 μM Riboflavin [2]: 301.0 min

COc1ccc(C=CC(=O)O)cc1OC [3,4-Dimethoxy Cinnamic Acid]
Half-Life of ADR Destruction, 100 μM Test Compound [1]: 43.0 min | Half-Life of ADR Destruction, 100 μM Test Compound and 0.5 μM Riboflavin [2]: 5.68 min

Nc1ccc(C(=O)c2cccc(N)c2)cc1 [3,4′-Diamino-benzophenone]
Half-Life of ADR Destruction, 100 μM Test Compound and 0.5 μM Riboflavin [2]: 15.8 min

Nc1cc(N)cc(C(=O)O)c1 [3,5-Diamino Benzoic Acid]
Half-Life of ADR Destruction, 100 μM Test Compound and 0.5 μM Riboflavin [2]: 75.3 min

Nc1cc(N)cc(CO)c1 [3,5-Diamino Benzyl Alcohol]
Half-Life of ADR Destruction, 100 μM Test Compound and 0.5 μM Riboflavin [2]: 75.3 min

Nc1cc(F)cc(F)c1 [3,5-Difluoro Aniline]
Half-Life of ADR Destruction, 100 μM Test Compound and 0.5 μM Riboflavin [2]: 15.1 min

COc1cc(C=CC(=O)O)cc(OC)c1O [3,5-Dimethoxy-4-Hydroxy Cinnamic Acid]
Half-Life of ADR Destruction, 100 μM Test Compound [1]: 75.3 min | Half-Life of ADR Destruction, 100 μM Test Compound and 0.5 μM Riboflavin [2]: 50.2 min

Cc1cc(C)cc(N)c1 [3,5-Dimethyl Aniline]
Half-Life of ADR Destruction, 100 μM Test Compound and 0.5 μM Riboflavin [2]: 100.4 ± 70.9 min

Nc1cc([N+](=O)[O-])cc([N+](=O)[O-])c1 [3,5-Dinitro Aniline]
Half-Life of ADR Destruction, 100 μM Test Compound and 0.5 μM Riboflavin: 75.3 min

COc1ccc2cc(C(=O)CCC(=O)O)c(OC)cc2c1 [3,6-Dimethoxy-γ-oxo-2-naphthalenebutyric acid]
Half-Life of ADR Destruction, 100 μM Test Compound [1]: 30.1 min | Half-Life of ADR Destruction, 100 μM Test Compound and 0.5 μM Riboflavin [2]: 3.86 min

O=C(O)CCOc1cccc2ccccc12 [3-(1-naphthyloxy) propionic acid]
Half-Life of ADR Destruction, 100 μM Test Compound [1]: 75.3 min

O=C(O)C=Cc1ccc2ccccc2c1 [3-(2-Naphthyl)acrylic acid]
Half-Life of ADR Destruction, 100 μM Test Compound and 0.5 μM Riboflavin [2]: 43.0 min

N[C@@H](Cc1ccc2ccccc2c1)C(=O)O [3-(2-Naphthyl)alanine]
Half-Life of ADR Destruction, 100 μM Test Compound and 0.5 μM Riboflavin [2]: 27.4 min

O=C(O)CCc1ccc(O)c(O)c1 [3-(3,4-Dihydroxyphenyl) Propionic Acid]
Half-Life of ADR Destruction, 100 μM Test Compound [1]: 75.3 min

COc1ccc(CCCO)cc1OC [3-(3,4-Dimethoxyphenyl)-1-Propanol]
Half-Life of ADR Destruction, 100 μM Test Compound [1]: 43.0 min | Half-Life of ADR Destruction, 100 μM Test Compound and 0.5 μM Riboflavin [2]: 4.78 min

Nc1ccc(CCC(=O)O)cc1 [3-(4-Aminophenyl) Propionic Acid]
Half-Life of ADR Destruction, 100 μM Test Compound and 0.5 μM Riboflavin [2]: 6.41 min

O=C(O)CCOc1ccc(-c2ccccc2)cc1 [3-(4-Biphenylyloxy) Propionic Acid]
Half-Life of ADR Destruction, 100 μM Test Compound [1]: 43.0 min | Half-Life of ADR Destruction, 100 μM Test Compound and 0.5 μM Riboflavin [2]: 43.0 min

O=C(O)CCc1ccc(O)cc1 [3-(4-Hydroxyphenyl) Propionic Acid]
Half-Life of ADR Destruction, 100 μM Test Compound and 0.5 μM Riboflavin [2]: 75.3 min

COc1ccc(CCC(=O)O)cc1 [3-(4-Methoxyphenyl) Propionic Acid]
Half-Life of ADR Destruction, 100 μM Test Compound [1]: 75.3 min | Half-Life of ADR Destruction, 100 μM Test Compound and 0.5 μM Riboflavin [2]: 12.5 min

COc1ccc(CCCO)cc1 [3-(4-Methoxyphenyl)-1-Propanol]
Half-Life of ADR Destruction, 100 μM Test Compound [1]: 43.0 min | Half-Life of ADR Destruction, 100 μM Test Compound and 0.5 μM Riboflavin [2]: 1.68 min

CC(=O)Oc1c[nH]c2ccccc12 [3-Acetoxyindole]
Half-Life of ADR Destruction, 100 μM Test Compound [1]: 25.1 min | Half-Life of ADR Destruction, 100 μM Test Compound and 0.5 μM Riboflavin [2]: 5.90 min

CC(=O)c1ccc2[nH]c3ccccc3c2c1 [3-Acetylcarbazole]
Half-Life of ADR Destruction, 100 μM Test Compound [3]: 30.1 min | Half-Life of ADR Destruction, 100 μM Test Compound and 0.5 μM Riboflavin [4]: 23.2 min

CC(=O)c1c[nH]c2ccccc12 [3-Acetylindole]
Half-Life of ADR Destruction, 100 μM Test Compound and 0.5 μM Riboflavin [2]: 33.5 min

Nc1cccc(S(=O)(=O)O)c1 [3-Amino Benzenesulfonic acid]
Half-Life of ADR Destruction, 100 μM Test Compound and 0.5 μM Riboflavin [2]: 17.7 min

Nc1cccc(C(=O)O)c1 [3-Amino Benzoic Acid]
Half-Life of ADR Destruction, 100 μM Test Compound and 0.5 μM Riboflavin [2]: 16.7 min

Nc1cccc(CO)c1 [3-Amino Benzyl Alcohol]
Half-Life of ADR Destruction, 100 μM Test Compound and 0.5 μM Riboflavin [2]: 7.34 min

Nc1cccc(CC(=O)O)c1 [3-Amino Phenylacetic acid]
Half-Life of ADR Destruction, 100 μM Test Compound and 0.5 μM Riboflavin [2]: 13.7 min

Cc1c(N)cccc1C(=O)O [3-Amino-2-Methyl Benzoic Acid]
Half-Life of ADR Destruction, 100 μM Test Compound and 0.5 μM Riboflavin [2]: 23.2 min

Cc1c(N)cccc1CO [3-Amino-2-Methyl Benzyl Alcohol]
Half-Life of ADR Destruction, 100 μM Test Compound and 0.5 μM Riboflavin [2]: 33.5 min

Nc1cc(C(=O)O)ccc1O [3-Amino-4-Hydroxy Benzoic Acid]
Half-Life of ADR Destruction, 100 μM Test Compound and 0.5 μM Riboflavin [2]: 75.3 min

Nc1cc(C[C@H](N)C(=O)O)ccc1O [3-Amino-4-Hydroxy Phenylalanine]
Half-Life of ADR Destruction, 100 μM Test Compound and 0.5 μM Riboflavin [2]: 100.3 min

Cc1ccc(C(=O)O)cc1N [3-Amino-4-Methyl Benzoic Acid]
Half-Life of ADR Destruction, 100 μM Test Compound and 0.5 μM Riboflavin [2]: 13.7 min

Cc1ccc(CO)cc1N [3-Amino-4-Methyl Benzyl Alcohol]
Half-Life of ADR Destruction, 100 μM Test Compound and 0.5 μM Riboflavin [2]: 23.2 min

Nc1ccc(O)c(C(=O)O)c1 [3-Amino-6-Hydroxy Benzoic Acid]
Half-Life of ADR Destruction, 100 μM Test Compound and 0.5 μM Riboflavin [2]: 301.0 min

Cc1ccc(N)cc1CO [3-Amino-6-Methyl Benzyl Alcohol]
Half-Life of ADR Destruction, 100 μM Test Compound and 0.5 μM Riboflavin [2]: 16.7 min

NC(=O)c1cccc(N)c1 [3-Aminobenzamide]
Half-Life of ADR Destruction, 100 μM Test Compound and 0.5 μM Riboflavin [2]: 6.87 ± 1.20 min

Nc1cc2ccccc2cc1C(=O)O [3-Atninonaphthalene-2-carboxylic acid]
Half-Life of ADR Destruction, 100 μM Test Compound [1]: 75.3 min | Half-Life of ADR Destruction, 100 μM Test Compound and 0.5 μM Riboflavin [2]: 50.2 min

O=C(O)c1cccc(C(=O)c2ccccc2)c1 [3-Benzophenone-carboxylic acid]
Half-Life of ADR Destruction, 100 μM Test Compound: 20.1 min | Half-Life of ADR Destruction, 100 μM Test Compound and 0.5 μM Riboflavin: 15.8 min

O=C(c1ccccc1)c1cccnc1C(=O)O [3-Benzoylpyridine-2-carboxylic acid]
Half-Life of ADR Destruction, 100 μM Test Compound [1]: 43.0 min | Half-Life of ADR Destruction, 100 μM Test Compound and 0.5 μM Riboflavin [2]: 43.0 min

Nc1cccc(Cc2ccccc2)c1 [3-Benzylaniline]
Half-Life of ADR Destruction, 100 μM Test Compound and 0.5 μM Riboflavin [2]: 6.54 min

Nc1cccc(OCc2ccccc2)c1 [3-Benzyloxyaniline]
Half-Life of ADR Destruction, 100 μM Test Compound: 43.0 min | Half-Life of ADR Destruction, 100 μM Test Compound and 0.5 μM Riboflavin: 17.7 min

O=C(/C=C/c1ccc(O)c(O)c1)O[C@@H]1C[C@](O)(C(=O)O)C[C@@H](O)[C@H]1O [3-Caffeolyquinic Acid]
Half-Life of ADR Destruction, 100 μM Test Compound [1]: 100.3 min | Half-Life of ADR Destruction, 100 μM Test Compound and 0.5 μM Riboflavin [2]: 100.3 min

O=C1COc2ccccc21 [3-Coumaranone]
Half-Life of ADR Destruction, 100 μM Test Compound [1]: 11.2 min | Half-Life of ADR Destruction, 100 μM Test Compound and 0.5 μM Riboflavin [2]: 11.2 min

CCc1cccc(N)c1 [3-Ethyl Aniline]
Half-Life of ADR Destruction, 100 μM Test Compound and 0.5 μM Riboflavin [2]: 20.1 min

Nc1cccc(F)c1 [3-Fluoro Aniline]
Half-Life of ADR Destruction, 100 μM Test Compound and 0.5 μM Riboflavin [2]: 5.90 min

O=C(O)c1cccc(O)c1 [3-Hydroxy Benzoic Acid]
Half-Life of ADR Destruction, 100 μM Test Compound and 0.5 μM Riboflavin [2]: 23.2 min

N[C@@H](Cc1cccc(O)c1)C(=O)O [3-Hydroxy Phenylalanine]
Half-Life of ADR Destruction, 100 μM Test Compound and 0.5 μM Riboflavin [2]: 34.2 ± 5.9 min
